Assay results reported in US20250388623A1, “PEPTIDE INHIBITOR AND USE THEREOF” (CHENGDU BRILLIANT INSPIRATION BIOTHERAPEUTICS CO., LTD, priority 2022, published 2025).
Bridge positions count the residues as written; N and C are the ends. Peptide text beside a SMILES is read from it.

Legend:
[1] = system: TSP-1-dependent TGF-β activation; test: TSP-1-dependent TGF-β activation in PMA-differentiated THP-1 cells with 293-TGFβ Res reporter cells; format: cell-based; details: 100 μM polypeptide, 24 h; ratio to negative control group (1.00)
Experimental: In this Example, the inhibitory effects of the polypeptides on TSP-1-dependent TGF-β activation were detected using a model based on a high TSP-1 expressing cell. In the assay, THP-1 cells (American Typical Culture Collection, ATCC, TIB-20) were induced by phorbol ester (Phorbol 12-myristate 13-acetate, PMA) (Sigma, Catalog No. P1585) and differentiated into macrophage-like cells with distinct macrophage expression profiles.
The experiment was performed as follows: THP-1 cells were inoculated in a 96-well plate, and treated with 300 nM PMA for differentiation and adherence to form macrophage-like cells. 100 μM polypeptide was added (For the negative control group, an equal volume of PBS (the solvent for the polypeptide) was added, while the positive control group received an equal concentration of the polypeptide shown in SEQ ID NO: 50.) The cells were treated for 24 hours, and then a 293 reporter cell strain, 293-TGFβ Res cell strain (novoprotein, Catalog No. XCC03-1), was added for detecting TGF-β activity, and co-cultivated for 24 hours. Bio-Lite Luciferase Assay lysate comprising fluorescent substrate (Vazyme, Catalog No. DD1201-01) was added, and the fluorescent intensity was detected using a multifunctional microplate reader (TECAN, model Infinite 200 Pro). The inhibitory effect of the polypeptide on TGF-β activation was assessed by calculating the ratio of the fluorescence signal from the polypeptide-treated groups to that of the negative control group.

[2] = biological target: T1, binding of TSP-1 protein to CD36, a TSP-1 receptor protein (Homo sapiens, UniProt P07996); test: ELISA: blocking of CD36 binding to TSP-1 protein; details: for inhibition at 100 µM: 3 h, 100 μM polypeptide, 0.25 μg/mL Fc-tagged CD36, blocking of CD36 binding to TSP-1, read-out: Blocking rate (Mean, %); for IC50: concentrations 0-100 μM
T1 construct: purchased novoprotein (TSP-1); R&D Systems (Fc-tagged CD36) CU45 (TSP-1); 1955-CD-050 (CD36-Fc)
Method in brief: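 Plate-bound TSP-1 (2 μg/mL coat) incubated 3 h at 37 °C with Fc-tagged CD36 (0.25 μg/mL final) ± polypeptide (100 μM final single-point; 0.5–100 μM for IC50); bound CD36 detected with FITC anti-Fc antibody fluorescence. Blocking rate = (control − treated)/control × 100%; IC50 from concentration dependence.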

[3] = system: human hepatic stellate cells (LX-2); test: ECM-related gene expression (RT-qPCR) in TGF-β1-stimulated LX-2 cells, liver fibrosis cell model; format: cell-based; details: 20 ng/mL TGF-β1 24 h, then 100 μM polypeptide 48 h; for COL I gene expression Mean: blank control 1.00, model group 6.62; for FN gene expression Mean: blank control 1.00, model group 11.38
Source text: This Example was to evaluate the inhibitory effect of polypeptides on the expression of extracellular matrix (ECM)-related genes in a cellular model of liver fibrosis. The experiment utilized human hepatic stellate cells (LX-2), which are the primary source of myofibroblasts in the liver. Upon activation, hepatic stellate cells transform into myofibroblasts, which secrete ECM in live and play a direct role in the development of hepatic fibrosis. Transient stimulation of LX-2 cells with TGF-β1 can initiate a positive feedback regulation of TSP-1-TGF-β1 activation, which continuously enhances myofibroblast characteristics, including ECM production.
This experiment was performed as follows. LX-2 cells (Procell, CL-0560) were stimulated by 20 ng/mL TGF-β1 (Genscript, Catalog No.Z03411) for 24 h, then added 100 μM polypeptide and cultured for 48 h. An equal volume of solvent was added to the model group, and LX-2 cells without any treatment were used as a blank control. After that, LX-2 cells were collected and total RNA was extracted for RT-qPCR to detect the expression of ECM-related genes, EDA-Fibronectin (fibronectin, FN) and Collagen I (COL1). The polypeptides were able to reduce the expressions of FN and COL1 genes in LX-2 and inhibit ECM production.

T1 sequence (P07996 19-1170): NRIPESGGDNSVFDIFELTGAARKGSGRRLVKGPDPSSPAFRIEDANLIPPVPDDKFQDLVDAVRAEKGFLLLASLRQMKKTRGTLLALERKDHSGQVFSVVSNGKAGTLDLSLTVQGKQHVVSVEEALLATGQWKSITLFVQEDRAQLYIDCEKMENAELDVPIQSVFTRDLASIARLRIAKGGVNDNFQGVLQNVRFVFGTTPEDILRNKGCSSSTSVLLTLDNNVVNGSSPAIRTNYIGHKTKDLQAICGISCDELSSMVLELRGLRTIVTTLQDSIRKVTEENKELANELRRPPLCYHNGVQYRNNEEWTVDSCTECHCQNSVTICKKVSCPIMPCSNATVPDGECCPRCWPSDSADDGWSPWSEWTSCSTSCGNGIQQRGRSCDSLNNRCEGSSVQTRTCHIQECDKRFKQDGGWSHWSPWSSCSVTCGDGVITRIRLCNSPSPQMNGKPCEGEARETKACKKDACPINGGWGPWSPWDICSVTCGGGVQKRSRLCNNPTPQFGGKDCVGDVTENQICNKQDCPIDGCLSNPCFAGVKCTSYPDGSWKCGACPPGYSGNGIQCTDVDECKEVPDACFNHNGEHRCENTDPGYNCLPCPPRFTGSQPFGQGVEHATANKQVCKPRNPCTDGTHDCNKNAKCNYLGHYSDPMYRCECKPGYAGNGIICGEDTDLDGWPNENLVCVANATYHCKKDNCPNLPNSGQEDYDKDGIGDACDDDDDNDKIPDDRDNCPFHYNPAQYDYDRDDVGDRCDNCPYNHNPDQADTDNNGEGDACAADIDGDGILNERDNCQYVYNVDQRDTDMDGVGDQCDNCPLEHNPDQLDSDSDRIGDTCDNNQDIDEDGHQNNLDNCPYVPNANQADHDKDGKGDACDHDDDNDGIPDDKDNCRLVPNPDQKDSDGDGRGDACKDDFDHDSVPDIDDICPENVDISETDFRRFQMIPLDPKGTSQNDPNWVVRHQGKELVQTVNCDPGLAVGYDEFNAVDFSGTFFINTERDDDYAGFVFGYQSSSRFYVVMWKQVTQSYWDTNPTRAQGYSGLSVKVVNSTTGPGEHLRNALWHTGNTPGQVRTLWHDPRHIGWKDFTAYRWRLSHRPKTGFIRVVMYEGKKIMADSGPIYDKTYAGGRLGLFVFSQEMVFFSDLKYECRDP

Compound | Mean (relative fluorescence intensity) [1] | inhibition at 100 µM [2] | IC50 [2] | COL I gene expression Mean [3] | FN gene expression Mean [3]
CC(=O)N[C@H](C(=O)N[C@H]1CSSC[C@@H](C(=O)O)NC(=O)[C@H](CC(N)=O)NC(=O)[C@H](CC(=O)O)NC(=O)[C@H](CCC(=O)O)NC(=O)[C@H](C)NC(=O)[C@H](CC(=O)O)NC1=O)[C@@H](C)O [SEQ ID NO: 43, Ac-Thr-cyclo[Cys-Asp-Ala-Glu-Asp-Asn-Cys]] (Ac-TCDAEDNC-OH; disulfide 2-8) | 0.65 | 52% | 3.62 µM | 4.63 | 5.80
Ac-TQDAEDN-NH2 [SEQ ID NO: 06, Ac-Thr-Gln-Asp-Ala-Glu-Asp-Asn-NH2] | 0.65 | 17.7% |  | 4.57 | 5.72
Ac-TQDAEDNTASH-NH2 [SEQ ID NO: 33, Ac-Thr-Gln-Asp-Ala-Glu-Asp-Asn-Thr-Ala-Ser-His-NH2] | 0.67 | 21.4% |  | 4.49 | 6.80
C[C@@H]1NC(=O)[C@H]([C@@H](C)O)NC(=O)[C@H](CC(N)=O)NC(=O)[C@H](CC(=O)O)NC(=O)[C@H](CCC(=O)O)NC(=O)[C@@H]2CCCN2C(=O)[C@H](CC(=O)O)NC(=O)[C@H](CCC(N)=O)NC(=O)[C@H]([C@@H](C)O)NC(=O)[C@H](CO)NC1=O [SEQ ID NO: 46, cyclo[Thr-Gln-Asp-Pro-Glu-Asp-Asn-Thr-Ala-Ser]] (cyclo(ASTQDPEDNT)) | 0.69 | 56.1% |  |  | 
C[C@@H]1NC(=O)[C@H](CC(=O)O)NC(=O)[C@H](CCC(N)=O)NC(=O)[C@H]([C@@H](C)O)NC(=O)[C@H](CC(N)=O)NC(=O)[C@H](CC(=O)O)NC(=O)[C@H](CCC(=O)O)NC1=O [SEQ ID NO: 40, cyclo[Thr-Gln-Asp-Ala-Glu-Asp-Asn]] (cyclo(AEDNTQD)) | 0.77 | 37.5% |  |  | 
Ac-TQDAEDPTA-NH2 [SEQ ID NO: 22, Ac-Thr-Gln-Asp-Ala-Glu-Asp-Pro-Thr-Ala-NH2] | 0.74 | 40.9% |  | 4.63 | 6.62
Ac-TQDPEDNTAS-NH2 [SEQ ID NO: 26, Ac-Thr-Gln-Asp-Pro-Glu-Asp-Asn-Thr-Ala-Ser-NH2] | 0.68 | 53.8% |  | 4.30 | 5.79
Ac-TQDAEDPTAS-NH2 [SEQ ID NO: 25, Ac-Thr-Gln-Asp-Ala-Glu-Asp-Pro-Thr-Ala-Ser-NH2] | 0.73 | 33% |  | 4.00 | 6.47
CC(=O)N[C@H](C(=O)N[C@H]1CSSC[C@@H](C(N)=O)NC(=O)[C@H](CC(N)=O)NC(=O)[C@H](CC(=O)O)NC(=O)[C@H](CCC(=O)O)NC(=O)[C@H](C)NC(=O)[C@H](CC(=O)O)NC1=O)[C@@H](C)O [SEQ ID NO: 44, Ac-Thr-cyclo[Cys-Asp-Ala-Glu-Asp-Asn-Cys]-NH2] (Ac-TCDAEDNC-NH2; disulfide 2-8) | 0.43 | 52.9% | 6.71 µM |  | 
